Entries after “also recorded” stand apart in the source; their conditions may differ.
What was measured:
bovine serum albumin = bovine serum albumin (Bos taurus, UniProt P02769); experiment: Bovine serum albumin denaturation inhibition assay; settings: 50–1000 µg/mL; Figure 2A; result in words
Experimental: A bovine serum albumin assay was conducted using the previously mentioned technique. Synthesized compounds were dissolved in 2% Tween 80 saline solution (v/v) to create a solution at different doses of 50, 100, 200, 400, 800, and 1000 μg/mL. To prepare the test control sample (0.5 mL), 0.45 mL of 5% w/v bovine serum albumin was dissolved in 0.05 mL of distilled water. A product control solution was made by mixing 0.45 mL of Tween 80 with 0.50 mL of the test sample. 0.45 mL of bovine serum albumin and 0.50 mL of synthesized compounds made up the […] test solution. […] A pH of 6.3 was adjusted using 1 N HCl. Every solution was heated for 3 min at 60 °C after being kept at 37 °C for 20 min. Samples were then allowed to cool, and their absorbance at 660 nm was measured. Three duplicates of the procedure were carried out, and the percentage inhibition of denaturation of the bovine serum albumin was calculated using the following formula:%Inhibition = ((Absorbance Control − Absorbance Sample)/(Absorbance control)) × 100.

egg albumin = experiment: Egg albumin protein denaturation inhibition assay; settings: 50–1000 µg/mL; Figure 2B; result in words
Experimental: To determine the egg albumin protein denaturation inhibition assay, the previously mentioned approach was used. Egg albumin (0.2 mL), 2.8 mL of phosphate-buffered saline (pH 6.4), and 2 mL of synthesized compound solutions in various concentrations were added to 5 mL of reaction mixture for this experiment. […] The reaction solutions were heated to 37 °C for 15 min, then to 70 °C for 5 min. After cooling, the absorbance of the solutions was measured at 660 nm. The experiment was conducted in triplicate, and the percentage inhibition of denaturation of the protein was calculated using the following formula:%Inhibition = ((Absorbance Control − Absorbance Sample)/(Absorbance control)) × 100.

Sequence of bovine serum albumin (P02769 25-607): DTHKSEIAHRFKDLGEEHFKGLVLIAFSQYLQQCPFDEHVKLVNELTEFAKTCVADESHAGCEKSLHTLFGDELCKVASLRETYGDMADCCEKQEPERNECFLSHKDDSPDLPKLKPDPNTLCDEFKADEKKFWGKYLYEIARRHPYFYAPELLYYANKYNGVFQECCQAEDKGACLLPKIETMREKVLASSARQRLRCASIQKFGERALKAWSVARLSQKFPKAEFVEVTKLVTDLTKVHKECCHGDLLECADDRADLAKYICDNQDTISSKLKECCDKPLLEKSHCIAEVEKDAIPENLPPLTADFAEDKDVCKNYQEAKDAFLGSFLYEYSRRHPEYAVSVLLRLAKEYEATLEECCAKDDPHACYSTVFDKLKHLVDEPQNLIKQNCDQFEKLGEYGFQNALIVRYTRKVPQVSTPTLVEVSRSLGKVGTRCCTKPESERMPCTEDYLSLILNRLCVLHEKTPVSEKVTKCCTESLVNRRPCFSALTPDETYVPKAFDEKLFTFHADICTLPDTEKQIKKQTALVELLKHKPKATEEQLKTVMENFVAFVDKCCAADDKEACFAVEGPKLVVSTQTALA

Compound | inhibition of bovine serum albumin denaturation (bovine serum albumin) | inhibition of egg albumin protein denaturation (egg albumin)
CC1(C)CC(=O)CC2(C1)N=C(N)Nc1nc(C(=O)Nc3ccc(S(N)(=O)=O)cc3)nn12 (stereo not shown) [Compound 2] | moderate inhibition; also recorded: superior percentage inhibition of protein denaturation | moderate inhibition; also recorded: superior percentage inhibition of protein denaturation
NC1=NC2(c3ccccc3Cc3ccccc32)n2nc(C(=O)Nc3ccc(S(N)(=O)=O)cc3)nc2N1 [Compound 3] | highest protective effect; also recorded: superior percentage inhibition of protein denaturation | highest protective effect; also recorded: superior percentage inhibition of protein denaturation

From PMC12292862 (Biomedicines, 2025)
